We go through 25 molecules from patent US11857551B1, “Methods for the prevention and treatment of hearing loss” (Ting Therapeutics LLC, priority 2020, dated 2024).

One series has as its system HEI-OC1 cells. The series is described as follows: Caspase-Glo 3/7 assay in cisplatin-treated HEI-OC1 cells. The note with it: for activity at 0.165 µM / activity at 13.3 µM / activity at 40 µM: Mus musculus, HEI-OC1, 19 h, read-out: caspase activity reached; for caspase activity reached: normalized to cisplatin-only and media-only controls; for IC50: read-out: calculated IC50 (percent protection dose response, caspase 3/7), HEI-OC1 cells, 1 h pretreatment, 19 h co-incubation.

Series [1] has as its system zebrafish HCs (lateral-line neuromasts). The experiment in a line: Cisplatin ototoxicity in zebrafish, neuromast hair cell count.
The test system of the next series is zebrafish hair cells. The series is described as follows: Excitotoxic hair cell damage in zebrafish (FIG. 4C). In kind it is in vivo. The note with it: P<0.05, one-way ANOVA. An excerpt:
(*P<0.05, one-way ANOVA.)

Another series relates to cancer patients. The note with it: cisplatin chemotherapy; cited from earlier work.
Series [2] concerns patients who received cisplatin chemotherapy. The following applies: cited from earlier work.
[3] abbreviates: 0.002, 0.018, 0.165, 1.48, 13.3 μM for 1 hour, then co-incubation with 400 μM cisplatin for 4 hours.

Each structure is given as a SMILES string. Structures can show the parent of a compound that is named as a salt.

Protocol for HEI-OC1 cells: Cells were seeded at 8,000 cells/well in 96 well plates and left to attach overnight. […] The cells were co-incubated with cisplatin and drug candidates for an additional 19 hours prior to Caspase-Glo 3/7 assay (Promega, Madison, WI) as previously shown. […] The luminescence detection representing caspase activity in each well was obtained using a Cytation Hybrid Multi-Mode Reader (Biotek, Winooski, VT, USA). The percent protection of the cells was calculated using caspase 3/7 readouts and the following formula:
Caspase activity was measured using Caspase-Glo 3/7 assay and then the results were calculated as percentage of protection as an indicator of cell survival/viability. Percent protection for each compound at the tested dosages were then plotted to show dose response curves, and IC50s were calculated.

With `Sc1ncnc2nc[nH]c12` [6 mercaptopurine], the activity at 0.165 µM in the series with HEI-OC1 cells is about 70%. In series [1] (setting [3]), the “protection against cisplatin ototoxicity (CIHL) in zebrafish” value (“protection against cisplatin ototoxicity” below) was “showed protection against CIHL”.
On to `CC[C@@]1(O)C(=O)OCc2c1cc1n(c2=O)Cc2cc3ccccc3nc2-1` [camptothecin], for which the activity at 13.3 µM in the series with HEI-OC1 cells is about 80%. Besides, in series [1] (setting [3]), the “protection against cisplatin ototoxicity” value was “showed protection against CIHL”.
For `CN1C(=O)[C@@]23C[C@]4([C@]56C[C@@]78SS[C@@](CO)(C(=O)N7[C@H]5Nc5ccccc56)N(C)C8=O)c5ccccc5N[C@@H]4N2C(=O)[C@]1(CO)SS3` [chaetocin], in the series with HEI-OC1 cells, the activity at 13.3 µM was 0%.
In the case of `CCCC[C@@H](C)/C=C(C)/C=C(\C)C(=O)NC1=C[C@@](O)(/C=C/C=C/C=C/C(=O)NC2=C(O)CCC2=O)[C@@H]2O[C@@H]2C1=O` [manumycin A], the caspase activity reached with HEI-OC1 cells (dosage ~1.48 μM, cisplatin 50 μM) is reported as about 35%. For the same molecule, the IC50 in the series on HEI-OC1 cells (cisplatin 50 μM) is 11.7 µM. The “protection against cisplatin ototoxicity” value in series [1] (setting [3]) was “showed protection against CIHL”.
Consider `CC(C(=O)Nc1cccc(/N=C/c2c(O)ccc3ccccc23)c1)c1ccccc1` (stereo not drawn) [salermide], for which the activity at 40 µM with HEI-OC1 cells is 0%. Moreover, in series [1] (setting [3]), the “protection against cisplatin ototoxicity” value is on record as “showed protection against CIHL”.
Regarding `CO[C@H]1C[C@@H]2CC[C@@H](C)[C@@](O)(O2)C(=O)C(=O)N2CCCC[C@H]2C(=O)O[C@H]([C@H](C)C[C@@H]2CC[C@@H](OCCO)[C@H](OC)C2)CC(=O)[C@H](C)/C=C(\C)[C@@H](O)[C@@H](OC)C(=O)[C@H](C)C[C@H](C)/C=C/C=C/C=C/1C` [everolimus], in the series with HEI-OC1 cells, the activity at 13.3 µM turned out to be 0%. For the same molecule, in series [1] (setting [3]), the “protection against cisplatin ototoxicity” value was “showed protection against CIHL”.
On to `C[C@H](CS)C(=O)N1CCC[C@H]1C(=O)O` [captopril], for which, in the series with HEI-OC1 cells, the activity at 0.165 µM was about 85%. The “protection against cisplatin ototoxicity” value in series [1] (setting [3]) was “showed protection against CIHL”.
As to `C[C@@H]1C[C@H]2O[C@@H]2/C=C\C=C\C(=O)Cc2c(Cl)c(O)cc(O)c2C(=O)O1` [radicicol], the activity at 13.3 µM in the series with HEI-OC1 cells worked out at 0%. Also, the “protection against cisplatin ototoxicity” value in series [1] (setting [3]) is on record as “showed protection against CIHL”.
Consider `O=c1[nH]cc(F)c(=O)[nH]1` [5-fluorouracil], for which, in the series with HEI-OC1 cells, the activity at 13.3 µM was about 30%. Also, the “protection of hair cells from excitotoxic damage” value in the series on zebrafish hair cells was “protect hair cells from excitotoxic damage”. The “protection against cisplatin ototoxicity” value in series [1] (setting [3]) was “showed protection against CIHL”.
Consider `O=C(Nc1ccc([N+](=O)[O-])cc1Cl)c1cc(Cl)ccc1O` [Niclosamide], for which, in the series with HEI-OC1 cells (dose 4.4 μM, cisplatin 50 μM, n=3 wells), the “caspase-3/7 activity versus control cells (in words)” value is reported as “reduce caspase activity to comparable levels as control cells”. The “cisplatin damage in zebrafish HCs at SO3 and O1-2 neuromasts” value in series [1] (pretreated with 0.002 μM, n=5 to 8 per group) is given as “significantly reduced Cisplatin damage”.
As to `CSc1ccc2c(c1)N(CCC1CCCCN1C)c1ccccc1S2` (stereo not drawn) [thioridazine], the activity at 40 µM in the series on HEI-OC1 cells is 0%. In series [1] (zebrafish, in vivo), the “protection against cisplatin ototoxicity” value was “showed protection against CIHL”.
Regarding `CCc1c2c(nc3ccc(OC(=O)N4CCC(N5CCCCC5)CC4)cc13)-c1cc3c(c(=O)n1C2)COC(=O)[C@]3(O)CC` [irinotecan], the activity at 13.3 µM in the series on HEI-OC1 cells is about 60%. For the same molecule, the “protection against cisplatin ototoxicity” value in series [1] (setting [3]) is recorded as “showed protection against CIHL”.
`COC[C@H]1OC(=O)c2coc3c2[C@@]1(C)C1=C(C3=O)[C@@H]2CCC(=O)[C@@]2(C)C[C@H]1OC(C)=O` [wortmannin]: the activity at 40 µM in the series with HEI-OC1 cells was about 50%.
As to `Cc1nc2ccc(CN(C)c3ccc(C(=O)N[C@@H](CCC(=O)O)C(=O)O)s3)cc2c(=O)[nH]1` [raltitrexed], the activity at 40 µM with HEI-OC1 cells was about 20%. In addition, the “protection against cisplatin ototoxicity” value in series [1] (setting [3]) was “showed protection against CIHL”.
For `N.N.[Cl][Pt][Cl]` [Cisplatin], the “permanent hearing loss, share of treated cancer patients” value in the series with cancer patients is reported as 40-60%.
On to `CC(Nc1nc(N2CCCC2)nc2ccccc12)c1ccccc1` (stereo not drawn) [importazole], for which the caspase activity reached in the series on HEI-OC1 cells (dosage ~40 μM, cisplatin 50 μM) came to 0%. In addition, the IC50 in the series on HEI-OC1 cells (cisplatin 50 μM) was 6.52 µM. Besides, the “protection of hair cells from excitotoxic damage” value with zebrafish hair cells was “protect hair cells from excitotoxic damage”. Besides, the “protection against cisplatin ototoxicity” value in series [1] (setting [3]) is recorded as “showed protection against CIHL”.
Take `O=C(O)[C@@H](S)[C@@H](S)C(=O)O` [succimer]: the activity at 40 µM in the series on HEI-OC1 cells was about 80%. Moreover, the “protection against cisplatin ototoxicity” value in series [1] (setting [3]) is “showed protection against CIHL”.
On to `CC(=O)c1c(C)c2cnc(Nc3ccc(N4CCNCC4)cn3)nc2n(C2CCCC2)c1=O` [palbociclib], for which the activity at 40 µM in the series on HEI-OC1 cells was about 80%.
For the molecule `CCCCC1(C2CCCC2)Cc2cc(OCCCC(=O)O)c(Cl)c(Cl)c2C1=O` (stereo not drawn) [DCPIB], in the series on HEI-OC1 cells (dosage ~4.4 μM, cisplatin 50 μM), the caspase activity reached is recorded as 0%. The IC50 in the series on HEI-OC1 cells (cisplatin 50 μM) was 3.1 µM. Also, in series [1] (setting [3]), the “protection against cisplatin ototoxicity” value is “showed protection against CIHL”.
Take `C1CCC(C(CC2CCCCN2)C2CCCCC2)CC1` (stereo not drawn) [perhexiline maleate]: the activity at 40 µM in the series on HEI-OC1 cells is 0%. Also, in series [1] (setting [3]), the “protection against cisplatin ototoxicity” value is on record as “showed protection against CIHL”.
For the molecule `CC(S)C(=O)NCC(=O)O` (stereo not drawn) [tiopronin], the “protection against cisplatin ototoxicity” value in series [1] (setting [3]) is on record as “showed protection against CIHL”.
Turning to `CCCc1cc(C(N)=S)ccn1` [prothionamide], the activity at 40 µM in the series with HEI-OC1 cells is about 50%. Moreover, in series [1] (setting [3]), the “protection against cisplatin ototoxicity” value is on record as “showed protection against CIHL”.
Turning to `CC(=O)c1c(O)c(C)c(O)c(Cc2c(O)c3c(c(C(=O)/C=C/c4ccccc4)c2O)OC(C)(C)C=C3)c1O` [rottlerin], the activity at 13.3 µM in the series with HEI-OC1 cells is 0%. Also, the “protection against cisplatin ototoxicity” value in series [1] (setting [3]) is recorded as “showed protection against CIHL”.
With `OCC(S)CS` (stereo not drawn) [dimercaptopropanol], in the series with HEI-OC1 cells (dosage ~40 μM, cisplatin 50 μM), the caspase activity reached is on record as 0%. Moreover, the IC50 in the series with HEI-OC1 cells (cisplatin 50 μM) was about 15 µM. For the same molecule, the “protection against cisplatin ototoxicity” value in series [1] (setting [3]) was “showed protection against CIHL”.
`O=S([O-])([O-])=S.[Na+].[Na+]` [Sodium thiosulfate (STS), Sodium thiosulfate]: in series [2] (patients with other cancers), the “protecting cisplatin-induced hearing loss (CIHL)” value is reported as “ineffective”. In addition, in series [2] (pediatric patients with localized hepatoblastoma who received cisplatin chemotherapy), the protecting hearing entry is “effective”.
